{"source": "paper PMC5218480", "about": "(PLoS ONE, 2017)", "tested_on": "MV-4-11 cells", "experiment": "Gene expression microarray analysis (Affymetrix PrimeView) and GSEA", "type": "cell-based, human", "design": "RFU PODN (11730768_x_at) / Fold change /veh PODN (11730768_x_at) / RFU LINC00158 (11744669_a_at) / Fold change /veh LINC00158 (11744669_a_at) / RFU DUSP10 (11751237_a_at) / Fold change /veh DUSP10 (11751237_a_at) / RFU ID3 (11757404_x_at) / Fold change /veh ID3 (11757404_x_at) / RFU PLEKHG5 (11737974_s_at) / Fold change /veh PLEKHG5 (11737974_s_at) / RFU LRRC4B (11730491_at) / Fold change /veh LRRC4B (11730491_at) / RFU GIMAP4 (11747438_a_at) / Fold change /veh GIMAP4 (11747438_a_at) / RFU KRT8 (11758183_x_at) / Fold change /veh KRT8 (11758183_x_at) / RFU CNN1 (11734310_a_at) / Fold change /veh CNN1 (11734310_a_at) / RFU VPS37D (11726825_at) / Fold change /veh VPS37D (11726825_at) / RFU C10orf10 (11716522_x_at) / Fold change /veh C10orf10 (11716522_x_at) / RFU KIR2DL2 /// KIR2DL4 /// KIR2DL5A /// KIR2DL5B /// KIR2DS1 /// KIR2DS2 /// KIR2DS3 /// KIR2DS4 /// KIR3DL3 /// KIR3DL3 /// KIR3DS1 (11738374_at) / Fold change /veh KIR2DL2 /// KIR2DL4 /// KIR2DL5A /// KIR2DL5B /// KIR2DS1 /// KIR2DS2 /// KIR2DS3 /// KIR2DS4 /// KIR3DL3 /// KIR3DL3 /// KIR3DS1 (11738374_at) / RFU C1QL1 (11718748_at) / Fold change /veh C1QL1 (11718748_at) / RFU TMPRSS4 (11747572_a_at) / Fold change /veh TMPRSS4 (11747572_a_at) / RFU HAMP (11756126_x_at) / Fold change /veh HAMP (11756126_x_at) / RFU RNFT2 (11725882_a_at) / Fold change /veh RNFT2 (11725882_a_at) / RFU NR4A2 (11747474_a_at) / Fold change /veh NR4A2 (11747474_a_at) / RFU ABCC12 (11746883_a_at) / Fold change /veh ABCC12 (11746883_a_at) / RFU TMEM136 (11760407_x_at) / Fold change /veh TMEM136 (11760407_x_at) / RFU CLDN22 /// WWC2 (11732394_at) / Fold change /veh CLDN22 /// WWC2 (11732394_at) / RFU HLA-DPB1 (11760878_x_at) / Fold change /veh HLA-DPB1 (11760878_x_at) / RFU SPINT1 (11716480_a_at) / Fold change /veh SPINT1 (11716480_a_at) / RFU GAP43 (11754022_s_at) / Fold change /veh GAP43 (11754022_s_at) / RFU A4GNT (11735810_at) / Fold change /veh A4GNT (11735810_at) / RFU PRB3 (11715151_x_at) / Fold change /veh PRB3 (11715151_x_at) / RFU TUBB4B (11761932_at) / Fold change /veh TUBB4B (11761932_at) / RFU CAPN14 (11732068_a_at) / Fold change /veh CAPN14 (11732068_a_at) / RFU TMCC2 (11721928_a_at) / Fold change /veh TMCC2 (11721928_a_at) / RFU IRGQ (11745062_a_at) / Fold change /veh IRGQ (11745062_a_at) / RFU FAM174B (11720279_a_at) / Fold change /veh FAM174B (11720279_a_at) / RFU TMPRSS4 (11748680_a_at) / Fold change /veh TMPRSS4 (11748680_a_at) / RFU FAM212B (11763350_a_at) / Fold change /veh FAM212B (11763350_a_at) / RFU PLEKHG5 (11743358_a_at) / Fold change /veh PLEKHG5 (11743358_a_at) / RFU ZSCAN30 (11745921_a_at) / Fold change /veh ZSCAN30 (11745921_a_at) / RFU CMKLR1 (11741424_a_at) / Fold change /veh CMKLR1 (11741424_a_at) / RFU LOC101060620 /// MAPK8IP1 (11723275_at) / Fold change /veh LOC101060620 /// MAPK8IP1 (11723275_at) / RFU SPTSSB (11747773_x_at) / Fold change /veh SPTSSB (11747773_x_at) / RFU PRSS12 (11739890_at) / Fold change /veh PRSS12 (11739890_at) / RFU BIN1 (11741810_x_at) / Fold change /veh BIN1 (11741810_x_at) / RFU WNT11 (11732464_a_at) / Fold change /veh WNT11 (11732464_a_at) / RFU C10orf10 (11716521_a_at) / Fold change /veh C10orf10 (11716521_a_at) / RFU C5orf56 (11738089_at) / Fold change /veh C5orf56 (11738089_at) / RFU CYB561 (11721691_x_at) / Fold change /veh CYB561 (11721691_x_at) / RFU ANKRD19P (11752326_a_at) / Fold change /veh ANKRD19P (11752326_a_at) / RFU OR2T12 /// OR2T33 /// OR2T8 (11738714_s_at) / Fold change /veh OR2T12 /// OR2T33 /// OR2T8 (11738714_s_at) / RFU VCAN (11748164_a_at) / Fold change /veh VCAN (11748164_a_at) / RFU JSRP1 (11732532_at) / Fold change /veh JSRP1 (11732532_at) / RFU KRTAP10-11 (11738290_x_at) / Fold change /veh KRTAP10-11 (11738290_x_at) / RFU MYO3A (11730013_a_at) / Fold change /veh MYO3A (11730013_a_at) / RFU EBF3 (11725865_a_at) / Fold change /veh EBF3 (11725865_a_at) / RFU CAMK2N1 (11719241_x_at) / Fold change /veh CAMK2N1 (11719241_x_at) / RFU C5orf56 (11738088_a_at) / Fold change /veh C5orf56 (11738088_a_at) / RFU OLFML3 (11715873_a_at) / Fold change /veh OLFML3 (11715873_a_at) / RFU LOC100653217 /// NTM (11731650_a_at) / Fold change /veh LOC100653217 /// NTM (11731650_a_at) / RFU MAPK11 (11762145_a_at) / Fold change /veh MAPK11 (11762145_a_at) / RFU FIZ1 (11724087_x_at) / Fold change /veh FIZ1 (11724087_x_at) / RFU OASL (11726364_x_at) / Fold change /veh OASL (11726364_x_at) / RFU SOX15 (11748057_x_at) / Fold change /veh SOX15 (11748057_x_at) / RFU CD79A (11719716_a_at) / Fold change /veh CD79A (11719716_a_at) / RFU HIST1H1D (11736915_at) / Fold change /veh HIST1H1D (11736915_at) / RFU CASKIN2 (11723855_a_at) / Fold change /veh CASKIN2 (11723855_a_at) / RFU LOC730098 (11760151_x_at) / Fold change /veh LOC730098 (11760151_x_at) / RFU OR4N2 (11742367_at) / Fold change /veh OR4N2 (11742367_at) / RFU PRRT2 (11749266_a_at) / Fold change /veh PRRT2 (11749266_a_at) / RFU SNX32 (11753110_a_at) / Fold change /veh SNX32 (11753110_a_at) / RFU CDHR5 (11726645_a_at) / Fold change /veh CDHR5 (11726645_a_at) / RFU RCAN1 (11760418_a_at) / Fold change /veh RCAN1 (11760418_a_at) / RFU FAM167A (11723789_a_at) / Fold change /veh FAM167A (11723789_a_at) / RFU FAM26E (11764081_at) / Fold change /veh FAM26E (11764081_at) / RFU ISYNA1 (11749810_s_at) / Fold change /veh ISYNA1 (11749810_s_at) / RFU ACY1 (11761880_at) / Fold change /veh ACY1 (11761880_at) / RFU 11764098_at / Fold change /veh 11764098_at / RFU SAMD14 (11745864_x_at) / Fold change /veh SAMD14 (11745864_x_at) / RFU NPB (11741838_a_at) / Fold change /veh NPB (11741838_a_at) / RFU TMPRSS6 (11731388_a_at) / Fold change /veh TMPRSS6 (11731388_a_at) / RFU KRTAP10-2 (11738614_at) / Fold change /veh KRTAP10-2 (11738614_at) / RFU ARHGAP8 /// PRR5-ARHGAP8 (11727945_x_at) / Fold change /veh ARHGAP8 /// PRR5-ARHGAP8 (11727945_x_at) / RFU KRTAP5-7 /// NADSYN1 (11734609_at) / Fold change /veh KRTAP5-7 /// NADSYN1 (11734609_at) / RFU RASL12 (11751679_a_at) / Fold change /veh RASL12 (11751679_a_at) / RFU CDKN2B (11736163_a_at) / Fold change /veh CDKN2B (11736163_a_at) / RFU PRF1 (11729649_at) / Fold change /veh PRF1 (11729649_at) / RFU, ZNF638 /// ZNF638-IT1 / Fold change vs veh, ZNF638 /// ZNF638-IT1 / RFU, PANK3 / Fold change vs veh, PANK3 / RFU, SH3YL1 / Fold change vs veh, SH3YL1 / RFU, ZEB2 / Fold change vs veh, ZEB2 / RFU, NRIP1 / Fold change vs veh, NRIP1 / RFU, PTTG1IP / Fold change vs veh, PTTG1IP / RFU, CAPN2 / Fold change vs veh, CAPN2 / RFU, MED14 / Fold change vs veh, MED14 / RFU, SNORA58 / Fold change vs veh, SNORA58 / RFU, C1orf63 / Fold change vs veh, C1orf63 / RFU, LRRFIP1 / Fold change vs veh, LRRFIP1 / RFU, NDUFAF7 / Fold change vs veh, NDUFAF7 / RFU, SLC12A2 / Fold change vs veh, SLC12A2 / RFU, IBTK / Fold change vs veh, IBTK / RFU, ESF1 / Fold change vs veh, ESF1 / Fold change vs veh, TMEM50B / RFU, TAOK1 / Fold change vs veh, TAOK1 / RFU, ACBD3 / Fold change vs veh, ACBD3 / RFU, TMA16 / Fold change vs veh, TMA16 / RFU, RWDD3 / Fold change vs veh, RWDD3 / RFU, BCAT1 / Fold change vs veh, BCAT1 / RFU, EDEM3 / Fold change vs veh, EDEM3 / RFU, TMEM33 / Fold change vs veh, TMEM33 / RFU, WDR75 / Fold change vs veh, WDR75 / RFU, AHCTF1 / Fold change vs veh, AHCTF1 / RFU, TFRC / Fold change vs veh, TFRC / RFU, ZDHHC17 / Fold change vs veh, ZDHHC17 / RFU, NOM1 / Fold change vs veh, NOM1 / RFU, ARL8B / Fold change vs veh, ARL8B / RFU, ZBTB11 / Fold change vs veh, ZBTB11 / RFU, TAMM41 / Fold change vs veh, TAMM41 / RFU, KIAA1704 /// LOC100996395 / Fold change vs veh, KIAA1704 /// LOC100996395 / RFU, ING1 / Fold change vs veh, ING1 / RFU, TRMT61B / Fold change vs veh, TRMT61B / RFU, FUBP3 / Fold change vs veh, FUBP3 / RFU, TP53 / Fold change vs veh, TP53 / RFU, TNKS2 / Fold change vs veh, TNKS2 / RFU, ZFP14 / Fold change vs veh, ZFP14 / RFU, ACTR2 / Fold change vs veh, ACTR2 / RFU, PPP3R1 / Fold change vs veh, PPP3R1 / RFU, PIK3R1 / Fold change vs veh, PIK3R1 / RFU, HNRNPA1 / Fold change vs veh, HNRNPA1 / RFU, RNF170 / Fold change vs veh, RNF170 / RFU, ZNF28 / Fold change vs veh, ZNF28 / RFU, RNGTT / Fold change vs veh, RNGTT / RFU, OGT / Fold change vs veh, OGT / RFU, BRD1 / Fold change vs veh, BRD1 / RFU, MARS / Fold change vs veh, MARS / RFU, ZNF655 / Fold change vs veh, ZNF655 / RFU, FAHD1 / Fold change vs veh, FAHD1 / RFU, BDP1 / Fold change vs veh, BDP1 / RFU, LRRCC1 / Fold change vs veh, LRRCC1 / RFU, ARID1A / Fold change vs veh, ARID1A / RFU, ZNF146 / Fold change vs veh, ZNF146 / RFU, ZNF330 / Fold change vs veh, ZNF330 / RFU, GPN3 / Fold change vs veh, GPN3 / RFU, C9orf123 / Fold change vs veh, C9orf123 / RFU, N4BP2L2 / Fold change vs veh, N4BP2L2 / RFU, ARFIP1 / Fold change vs veh, ARFIP1 / RFU, FAM179B / Fold change vs veh, FAM179B / RFU, BCL10 / Fold change vs veh, BCL10 / RFU, UHRF1BP1L / Fold change vs veh, UHRF1BP1L / RFU, BET1 / Fold change vs veh, BET1 / RFU, CNOT2 / Fold change vs veh, CNOT2 / RFU, ZNF268 / Fold change vs veh, ZNF268 / Fold change vs veh, ZNF507 / RFU, DGCR2 / Fold change vs veh, DGCR2 / RFU, WDSUB1 / Fold change vs veh, WDSUB1 / Fold change vs veh, HSP90B1 /// MIR3652 / RFU, ADSS / Fold change vs veh, ADSS / RFU, GK / Fold change vs veh, GK / RFU, ZNF148 / Fold change vs veh, ZNF148 / RFU, TAF9 / Fold change vs veh, TAF9 / RFU, SLC1A5 / Fold change vs veh, SLC1A5 / RFU, SLMO2 / Fold change vs veh, SLMO2 / RFU, ABCC4 / Fold change vs veh, ABCC4 / RFU, LOC101060439 /// RAP1B / Fold change vs veh, LOC101060439 /// RAP1B / RFU, RFX7 / Fold change vs veh, RFX7 / RFU, GTPBP10 / Fold change vs veh, GTPBP10 / RFU, CNEP1R1 / Fold change vs veh, CNEP1R1 / RFU, BIVM-ERCC5 /// ERCC5 / Fold change vs veh, BIVM-ERCC5 /// ERCC5 / RFU, ILF3 / Fold change vs veh, ILF3 / RFU 11762660_at / Fold change /veh 11762660_at / RFU VCAN (11757783_s_at) / Fold change /veh VCAN (11757783_s_at) / RFU DDX43 (11728927_at) / Fold change /veh DDX43 (11728927_at) / RFU KRT8 (11758188_x_at) / Fold change /veh KRT8 (11758188_x_at) / RFU NKD1 (11759106_at) / Fold change /veh NKD1 (11759106_at) / RFU SRD5A1 (11742802_a_at) / Fold change /veh SRD5A1 (11742802_a_at) / RFU TPSAB1 /// TPSB2 (11721975_s_at) / Fold change /veh TPSAB1 /// TPSB2 (11721975_s_at) / RFU GSTM3 (11746129_a_at) / Fold change /veh GSTM3 (11746129_a_at) / RFU IL23R (11737362_x_at) / Fold change /veh IL23R (11737362_x_at) / RFU TMEM51 (11727254_a_at) / Fold change /veh TMEM51 (11727254_a_at) / RFU PIWIL2 (11732686_x_at) / Fold change /veh PIWIL2 (11732686_x_at) / RFU ORM1 (11744905_x_at) / Fold change /veh ORM1 (11744905_x_at) / RFU CCDC152 (11743942_at) / Fold change /veh CCDC152 (11743942_at) / RFU ECM1 (11717891_a_at) / Fold change /veh ECM1 (11717891_a_at) / RFU IL23R (11748794_a_at) / Fold change /veh IL23R (11748794_a_at) / RFU TNFAIP8L3 (11732012_x_at) / Fold change /veh TNFAIP8L3 (11732012_x_at) / RFU MBOAT4 (11741988_at) / Fold change /veh MBOAT4 (11741988_at) / RFU 11764193_at / Fold change /veh 11764193_at / RFU TMEM53 (11763286_at) / Fold change /veh TMEM53 (11763286_at) / RFU MAGEB2 (11727129_at) / Fold change /veh MAGEB2 (11727129_at) / RFU TMEM200A (11744735_a_at) / Fold change /veh TMEM200A (11744735_a_at) / RFU CCDC152 (11751479_a_at) / Fold change /veh CCDC152 (11751479_a_at) / RFU FAM211A (11726209_a_at) / Fold change /veh FAM211A (11726209_a_at) / RFU RGS16 (11746705_a_at) / Fold change /veh RGS16 (11746705_a_at) / RFU VCAN (11755009_s_at) / Fold change /veh VCAN (11755009_s_at) / RFU RHOB (11743442_s_at) / Fold change /veh RHOB (11743442_s_at) / RFU RGS16 (11720943_a_at) / Fold change /veh RGS16 (11720943_a_at) / RFU RGS16 (11720944_at) / Fold change /veh RGS16 (11720944_at) / RFU, VPS4B / Fold change vs veh, VPS4B / RFU, CREB1 / Fold change vs veh, CREB1 / RFU, DNAJC13 / Fold change vs veh, DNAJC13 / RFU, GNAQ / Fold change vs veh, GNAQ / RFU, CDK5R1 / Fold change vs veh, CDK5R1 / RFU, ZRANB3 / Fold change vs veh, ZRANB3 / RFU, CUL4A / Fold change vs veh, CUL4A / RFU, CCNY / Fold change vs veh, CCNY / RFU, UFL1 / Fold change vs veh, UFL1 / RFU, COG3 / Fold change vs veh, COG3 / RFU, DIAPH2 / Fold change vs veh, DIAPH2 / RFU, SKA2 / Fold change vs veh, SKA2 / RFU, AFF3 / Fold change vs veh, AFF3 / RFU, LMF1 / Fold change vs veh, LMF1 / RFU, IPO11 / Fold change vs veh, IPO11 / RFU, DFFB / Fold change vs veh, DFFB / RFU, FOXP1 / Fold change vs veh, FOXP1 / RFU, CARD8 / Fold change vs veh, CARD8 / RFU, STRN3 / Fold change vs veh, STRN3 / RFU, ADK / Fold change vs veh, ADK / RFU, RASSF2 / Fold change vs veh, RASSF2 / RFU, WIPF1 / Fold change vs veh, WIPF1 / RFU, LARP1B / Fold change vs veh, LARP1B / RFU, RASA1 / Fold change vs veh, RASA1 / RFU, RB1 / Fold change vs veh, RB1 / RFU, PPFIA1 / Fold change vs veh, PPFIA1 / RFU, MAT2A / Fold change vs veh, MAT2A / RFU, CCT5 / Fold change vs veh, CCT5 / RFU, WDR92 / Fold change vs veh, WDR92 / RFU, CUX1 / Fold change vs veh, CUX1 / RFU, TTC7A / Fold change vs veh, TTC7A / RFU, TMEM135 / Fold change vs veh, TMEM135 / RFU, DEPTOR / Fold change vs veh, DEPTOR / RFU, CPM / Fold change vs veh, CPM / RFU, DNAJB6 / Fold change vs veh, DNAJB6 / RFU, CACNA2D3 / Fold change vs veh, CACNA2D3 / RFU, DTX4 / Fold change vs veh, DTX4 / RFU, TFCP2 / Fold change vs veh, TFCP2 / RFU, GMCL1 /// GMCL1P1 / Fold change vs veh, GMCL1 /// GMCL1P1 / RFU, AEBP2 / Fold change vs veh, AEBP2 / RFU, SNHG1 /// SNORD22 /// SNORD25 /// SNORD26 /// SNORD27 /// SNORD28 /// SNORD29 /// SNORD31 / Fold change vs veh, SNHG1 /// SNORD22 /// SNORD25 /// SNORD26 /// SNORD27 /// SNORD28 /// SNORD29 /// SNORD31 / Fold change (Aza/veh), C12orf56 (ProbeSet 11735607_a_at) / Fold change (ACY-1035/veh), C12orf56 (ProbeSet 11735607_a_at) / Fold change (Aza/veh), FGFR1OP (ProbeSet 11751329_s_at) / Fold change (ACY-1035/veh), FGFR1OP (ProbeSet 11751329_s_at) / Fold change (Aza/veh), VPS36 (ProbeSet 11739960_a_at) / Fold change (ACY-1035/veh), VPS36 (ProbeSet 11739960_a_at) / RFU SYPL1 (11715823_x_at) / Fold change /veh SYPL1 (11715823_x_at) / RFU IGFBP7 (11715501_s_at) / Fold change /veh IGFBP7 (11715501_s_at) / RFU REEP3 (11722064_at) / Fold change /veh REEP3 (11722064_at) / RFU IGLL1 (11728026_x_at) / Fold change /veh IGLL1 (11728026_x_at): dose or concentration left out as unconfirmed", "conditions": "MV-4-11 cells, 48 hours", "data": [{"smiles": "Nc1ncn([C@@H]2O[C@H](CO)[C@@H](O)[C@H]2O)c(=O)n1", "note": "[azacitidine]", "values": [{"measurement": "RFU KRTAP10-2 (11738614_at)", "value": 10.93, "unit": "RFU"}]}]}
